Experimental data from patent US11559544B2, “Combination of a MAPK/ERK pathway inhibitor and a glycosaminoglycan for the treatment of cancer” (CELL RECEPTOR AG, priority 2017, dated 2023).

Legend:
[1] = system: colorectal cancer cell lines COL0205 and HCT116 resistant to PD184352; assay: Growth of CI-1040 (PD184352)-resistant cancerous cells co-incubated daily with platelets (Example 2); type: cell-based; settings: serum-free, platelets 30 minutes each day; for fate of cell population incubated with MEK inhibitor and PPS or DXS: in the presence of CI-1040 (PD184352)
Experimental: (§1) Three populations of cells are cultivated in the presence of the inhibitor under serum-free conditions.
(§2) For a first population of the cells PPS is added to the cell culture dishes, while for a second population, i.e. the control cells, no PPS is added.
(§3) For a third population of the cells DXS is added to the cell culture dishes.
(§4) Each day all cell populations are co-incubated with platelets for 30 minutes, which are subsequently washed away.
The second experiment is performed as described for Example 1 except that cells are cultivated in the presence of the MEK inhibitor CI-1040 (PD184352).
As described in Little et al. 2011 in detail cancerous cells that have developed a resistance against the MEK inhibitor PD184352 are generated by growing colorectal cancer cell lines harboring mutations in BRAF (COL0205) or KRAS (HCT116) in the presence of increasing concentrations of […] without clonal selection until they grow apparently normally in 1 μm, 2 μM or […].
For each of the cancerous cells lines that have developed a resistance against the MEK inhibitor CI-1040 (PD184352) the cultivation steps as in Example 1 are performed, except that the cells are cultivated in the presence of the MEK inhibitor CI-1040 (PD184352).

[2] = system: melanoma cell line A375 resistant to dabrafenib; assay: Growth of dabrafenib-resistant cancerous cells co-incubated daily with platelets (Example 6); type: cell-based, human; settings: serum-free, platelets 30 minutes each day; for fate of cell population incubated with Raf inhibitor and PPS or DXS: in the presence of dabrafenib
Experimental: as §1, §2, §3, §4
The sixth experiment is performed as described for Example 1 except that cells that have developed a resistance against the Raf inhibitor dabrafenib are used and cultivated in the presence of the Raf inhibitor dabrafenib.
As described in Caparorali et al. 2011 in detail cancerous cells that have developed a resistance against the Raf inhibitor dabrafenib are generated by growing the human melanoma cell line A375 in gradually increasing concentrations of dabrafenib (from 1 nM up to 1.5 μM) over a period of 4 months and subsequently maintaining the dabrafenib-resistance cell lines in CM supplemented with 1.5 μM dabrafenib.
For each of the cancerous cells lines that have developed a resistance against the Raf inhibitor dabrafenib the cultivation steps as in Example 1 are performed, except that the cells are cultivated in the presence of the Raf inhibitor dabrafenib.

[3] = system: Hepatocellular carcinoma (HCC) Huh7 cells resistant to sorafenib; assay: Growth of sorafenib-resistant cancerous cells co-incubated daily with platelets (Example 5); type: cell-based, human; settings: serum-free, platelets 30 minutes each day; for fate of cell population incubated with Raf inhibitor and PPS or DXS: in the presence of sorafenib
Experimental: as §1, §2, §3, §4
The fifth experiment is performed as described for Example 1 except that cells that have developed a resistance against the Raf inhibitor sorafenib are used and cultivated in the presence of the Raf inhibitor sorafenib.
As described in Chen et al. 2011 in detail cancerous cells that have developed a resistance against the Raf inhibitor sorafenib are generated by growing the human Hepatocellular carcinoma (HCC) Huh7 in a long term exposure to sorafenib.
For each of the cancerous cells lines that have developed a resistance against the Raf inhibitor sorafenib the cultivation steps as in Example 1 are performed, except that the cells are cultivated in the presence of the Raf inhibitor sorafenib.

[4] = system: cancerous cells resistant against an RTK inhibitor; assay: Growth of RTK inhibitor-resistant cancerous cells co-incubated daily with platelets (Example 7); type: cell-based; settings: in the presence of the RTK inhibitor, serum-free, platelets 30 minutes each day
Experimental: as §1, §2, §3, §4
The seventh experiment is performed as described for Example 1, except that the cancerous cells are resistant against an RTK inhibitor and the three populations of cells are cultivated in the presence of the RTK inhibitor.

[5] = system: NRAS mutant melanoma cell lines DO4 and MM415 resistant to trametinib; assay: Growth of trametinib-resistant cancerous cells co-incubated daily with platelets (Example 3); type: cell-based, Human; settings: in the presence of trametinib, serum-free, platelets 30 minutes each day
Experimental: as §1, §2, §3, §4
The third experiment is performed as described for Example 1 except that cells that have developed a resistance against the MEK inhibitor trametinib (GSK1120212) are used and cultivated in the presence of the MEK inhibitor trametinib.
As described in Vujic et al. 2014 in detail cancerous cells that have developed a resistance against the MEK inhibitor trametinib are generated by growing Human NRAS mutant melanoma cell lines DO4 and MM415 in the presence of increased concentrations of trametinib (GSK1120212) over a period of approximately 6 months.
For each of the cancerous cell lines that have developed a resistance against the MEK inhibitor trametinib the cultivation steps as in Example 1 are performed, except that the cells are cultivated in the presence of the MEK inhibitor trametinib.

[6] = system: colorectal cancer cell lines COL0205, HT29, HCT116 and LoVo resistant to Selumetinib; assay: Growth of Selumetinib-resistant cancerous cells co-incubated daily with platelets (Example 1); type: cell-based; settings: in the presence of Selumetinib, serum-free, platelets 30 minutes each day
Experimental: The experiment is performed on cancerous cells that have developed a resistance against the MEK inhibitor Selumetinib. As described in Little et al. 2011 in detail cancerous cells that have developed a resistance against the MEK inhibitor Selumetinib are generated by growing colorectal cancer cell lines harboring mutations in BRAF (COL0205 and HT29 lines) or KRAS (HCT116 and LoVo lines) in the presence of increasing concentrations of AZD6244 (Selumetinib) without clonal selection until they grow apparently normally in 1 μm, 2 μM or 4 μM of the drug.
For each of the cancerous cells lines that have developed a resistance against the MEK inhibitor Selumetinib the following steps are performed:
as §1, §2, §3, §4
Control cells in the growth cycle express platelet receptors on their surface. Platelets adhere to the control cells and release growth factors from their alpha granules. The control cells will take up the factors and proceed through the cell cycle, even in the presence of the MEK inhibitor.

[7] = system: melanoma cell line SK-MEL-28 (BRAF V600E) resistant to vemurafenib; assay: Growth of vemurafenib-resistant cancerous cells co-incubated daily with platelets (Example 4); type: cell-based; settings: in the presence of vemurafenib, serum-free, platelets 30 minutes each day
Experimental: as §1, §2, §3, §4

[8] = fraction of Heparin's activity; cited from earlier work

Row | Compound | fate of cell population incubated with RTK inhibitor and PPS or DXS [4] | fate of cell population incubated with MEK inhibitor and PPS or DXS [5] | adherence of platelets to the cancerous cells [6] | fate of cell population incubated with MEK inhibitor and PPS or DXS [6] | fate of cell population incubated with Raf inhibitor and PPS or DXS [2] | fate of cell population incubated with MEK inhibitor and PPS or DXS [1] | fate of cell population incubated with Raf inhibitor and PPS or DXS [7] | fate of cell population incubated with Raf inhibitor and PPS or DXS [3] | other results
1 | O=C(NOCC1CC1)c1ccc(F)c(F)c1Nc1ccc(I)cc1Cl [CI-1040] | – | – | – | – | – | – | – | – | growth of control cells with MEK inhibitor alone (no PPS/DXS) ([1]; CI-1040 (PD184352) alone): continue to grow and divide
2 | CC(C)(C)c1nc(-c2cccc(NS(=O)(=O)c3c(F)cccc3F)c2F)c(-c2ccnc(N)n2)s1 [dabrafenib] | – | – | – | – | – | – | – | – | growth of control cells with Raf inhibitor alone (no PPS/DXS) ([2]; dabrafenib alone): continue to grow and divide
3 | CNC(=O)c1cc(Oc2ccc(NC(=O)Nc3ccc(Cl)c(C(F)(F)F)c3)cc2)ccn1 [sorafenib] | – | – | – | – | – | – | – | – | growth of control cells with Raf inhibitor alone (no PPS/DXS) ([3]; sorafenib alone): continue to grow and divide
4 | Dextran sulfate [DXS] | perish | perish | prevents the platelet from adhering to the cancerous cells | perish | perish | perish | perish | perish | –
5 | Pentosan polysulfate [PPS] | perish | perish | prevents the platelet from adhering to the cancerous cells | perish | perish | perish | perish | perish | anticoagulant activity relative to that of Heparin [8]: 1/15
